From paper PMC9414676, “Experimental Studies Indicate That ST-2223, the Antagonist of Histamine H3 and Dopamine D2/D3 Receptors, Restores Social Deficits and Neurotransmission Dysregulation in Mouse Model of Autism” (Pharmaceuticals, 2022)
“Also recorded” adds a separate entry of the source.

What was measured:
hH3R = molecular target: T1, hH3R (Homo sapiens, UniProt Q9Y5N1); test: [3H]Nα-methylhistamine binding assay, membranes of HEK cells stably expressing hH3R
T1 construct: expressed in transfected cells
Protocol: In vitro, ST-2223 was evaluated for its H3R affinity on membrane preparations of HEK-293 cells, which stably express the hH3R, by [^3H]N^α-methylhistamine displacement assays.

hD3R = molecular target: T2, hD3R (Homo sapiens, UniProt P35462); test: [3H]spiperone displacement assay, CHO cells expressing hD3Rs; assay type: binding; settings: ratio of Ki values
T2 construct: expressed in transfected cells; host or cells: CHO cells (from the earlier reading's assay name)

EeAChE = EeAChE (Electrophorus electricus, UniProt O42275); test: Acetylcholine esterase inhibition (preliminary data); assay type: biochemical, electric eel
[1] = tested on: histamine levels in BTBR mice brain; test: Histamine levels by LC-MS/MS in brain regions; assay type: in vivo; set-up: key to Histamine level: ↔: No significant alterations; ↑: significant increase; ↑↑: additional significant increase vs. ST-2223-treated mice; ↓: significant decrease; settings: ST-2223 5 mg/kg i.p. chronic, vs VEH-treated BTBR mice
Protocol: (§1) All the mice were randomly divided into nine groups of 5–7 mice each. The mice were injected intraperitonially once daily for 21 days with different doses of ST2223 (2.5, 5, and 10 mg/kg, i.p.), ARP 1 mg/kg or vehicle (1% DMSO in 0.9% normal saline). Group I, B6 mice were injected with vehicle served as control. Group II, BTBR mice were treated with vehicle. Groups III–V, BTBR mice received i.p. injections of different doses of ST2223 (2.5, 5, and 10 mg/kg, i.p.), respectively. Group VI, BTBR mice were injected with ARP (1 mg/kg, i.p.). For abrogation studies, Group VII, BTBR mice were treated with ST2223 (5 mg/kg, i.p.) along with RAM (10 mg/kg, i.p.). Group VIII, B6 mice were co-injected with vehicle and RAM (10 mg/kg, i.p). All treatments and vehicle (VEH) were administered 30–45 min before each behavioral test. The doses of these drugs were selected based on previous reports. Behavioral testing was performed between 9:00 am and 3:00 pm in an order randomized by group and in the following sequence: social approach test (SAT) and open field locomotor test (OFL). The chronic treatment started one week before the behavioral test and was continued for a total of 21 days as described above (Figure 7). Following behavioral tests, i.e., on day 21 of systemic treatment, five of the animals were sacrificed. The animals were deeply anesthetized with pentobarbital (40 mg/kg, i.p., body weight). To wash out the blood, cardiac perfusion was carried out using 0.01 M phosphate-buffered saline (PBS) at pH 7.4. The brains were quickly removed and placed on an ice plate, where the cerebellum, hippocampus, prefrontal cortex, and striatum were excised from the brain and snap-frozen in liquid nitrogen for later LC-MS/MS analysis.
(§2) Perfusion was done on anesthetized animals using 1X PBS as described previously. Different regions of the brain were snap frozen. Frozen tissues were then weighed and homogenized in a 10-fold volume of acetonitrile. For 50mg of tissue, 500 µL of acetonitrile and Internal standard mix were added and homogenized. Homogenates were centrifuged at 15,000 rcf for 15 min at 4 °C. Tissue levels of dopamine, acetylcholine, histamine, and their metabolites were assessed using LC-MS/MS. LC-MS/MS analysis was conducted utilizing Waters BEH C18 COLUMN (2.1 × 100 mm, 1.7 µm) using Waters Acquity UPLC Binary Solvent Manager and FTN Sample Manager. The system was run in gradient mode with mobile phase A consisting of LC-MS GRADE WATER + 0.1% FORMIC ACID and mobile phase B consisting of 100% ACETONITRILE. Mobile phase was duly filtered through 0.2 µm filter and degassed ultrasonically for 15 min prior to use. Separations were performed at room temperature with 0.3 mL/min flow rate gradient starting with 90% of A for up to 0.5 min. Then, % of A was decreased gradually until it reached 20% at 2.5 min after which at 3 min %A was brought back to the initial condition and left for equilibration for 2 more minutes before the next injection (total 5 min run time). The injection volume was kept at 1 µL. Mass spectrometric detection was performed in multiple reaction monitoring (MRM) mode with positive electrospray ionization (ESI+) on Xevo TQS mass spectrometer (Waters, Milford, MA) equipped with an electrospray ionization (ESI) source and triple quadrupole mass analyzer. MRM transitions and instrument parameters were set by tuning the instrument by infusing each analyte. MRM transitions taken for quantification were 146.2 > 87.1 for Acetylcholine, 112.2 > 95.2 for Histamine, 154.1 > 137.2 for Dopamine, 150.2 > 91.3 for Acetylcholine D4, and […] > 99.3 for Histamine D4. Capillary Voltage, Source Offset, Source Temperature, De solvation Temperature, Cone Gas Flow, De solvation Gas Flow, Collision Gas Flow, Nebulizer Gas Flow were set as 3.0 (kV), 60.0 (V), 150 (°C), 550 (°C), 150 (L/Hr), 1000 (L/Hr), 0.13 (mL/min), and 7 (Bar), correspondingly. […]

[2] = tested on: dopamine levels in BTBR mice brain; test: Dopamine levels by LC-MS/MS in brain regions; assay type: in vivo; set-up: key to Dopamine level: ↔: No significant alterations; ↑: significant increase; ↑↑: additional significant increase vs. ST-2223-treated mice; ↓: significant decrease; settings: for Dopamine level: ST-2223 5 mg/kg i.p. chronic, vs VEH-treated BTBR mice
Protocol: as §1, §2

B6 control mice = tested on: B6 control mice; set-up: method as in PMID 33669336; settings: cited from earlier work

EeAChE, sequence (O42275 24-633): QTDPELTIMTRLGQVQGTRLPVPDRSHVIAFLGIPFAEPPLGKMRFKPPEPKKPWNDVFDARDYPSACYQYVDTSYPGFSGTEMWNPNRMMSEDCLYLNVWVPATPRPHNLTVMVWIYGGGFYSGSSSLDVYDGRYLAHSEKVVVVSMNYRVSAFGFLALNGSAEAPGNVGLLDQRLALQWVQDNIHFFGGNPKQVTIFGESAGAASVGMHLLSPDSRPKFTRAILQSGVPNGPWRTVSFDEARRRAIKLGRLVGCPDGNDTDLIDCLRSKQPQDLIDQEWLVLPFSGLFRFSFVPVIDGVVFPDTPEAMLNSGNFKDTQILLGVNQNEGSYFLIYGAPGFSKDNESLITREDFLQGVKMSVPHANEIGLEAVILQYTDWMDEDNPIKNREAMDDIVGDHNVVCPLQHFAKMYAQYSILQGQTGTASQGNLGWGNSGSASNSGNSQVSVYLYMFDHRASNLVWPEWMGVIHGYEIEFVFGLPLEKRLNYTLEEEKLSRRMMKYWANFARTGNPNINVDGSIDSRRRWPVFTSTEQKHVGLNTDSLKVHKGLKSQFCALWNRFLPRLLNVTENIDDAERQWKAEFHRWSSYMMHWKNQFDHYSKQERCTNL
T1 sequence (Q9Y5N1 whole entry): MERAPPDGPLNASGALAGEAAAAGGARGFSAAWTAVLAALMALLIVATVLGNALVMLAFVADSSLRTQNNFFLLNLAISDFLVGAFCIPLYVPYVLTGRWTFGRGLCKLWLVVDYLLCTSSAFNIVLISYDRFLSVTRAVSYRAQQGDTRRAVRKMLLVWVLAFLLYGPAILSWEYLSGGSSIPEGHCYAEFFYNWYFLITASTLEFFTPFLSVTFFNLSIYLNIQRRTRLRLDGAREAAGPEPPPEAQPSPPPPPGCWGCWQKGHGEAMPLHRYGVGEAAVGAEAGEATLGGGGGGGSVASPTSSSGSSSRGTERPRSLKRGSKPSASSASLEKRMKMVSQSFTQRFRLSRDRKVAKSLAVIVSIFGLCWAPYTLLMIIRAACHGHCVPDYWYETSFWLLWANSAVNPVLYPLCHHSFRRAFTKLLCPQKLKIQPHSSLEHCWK
T2 sequence (P35462 whole entry): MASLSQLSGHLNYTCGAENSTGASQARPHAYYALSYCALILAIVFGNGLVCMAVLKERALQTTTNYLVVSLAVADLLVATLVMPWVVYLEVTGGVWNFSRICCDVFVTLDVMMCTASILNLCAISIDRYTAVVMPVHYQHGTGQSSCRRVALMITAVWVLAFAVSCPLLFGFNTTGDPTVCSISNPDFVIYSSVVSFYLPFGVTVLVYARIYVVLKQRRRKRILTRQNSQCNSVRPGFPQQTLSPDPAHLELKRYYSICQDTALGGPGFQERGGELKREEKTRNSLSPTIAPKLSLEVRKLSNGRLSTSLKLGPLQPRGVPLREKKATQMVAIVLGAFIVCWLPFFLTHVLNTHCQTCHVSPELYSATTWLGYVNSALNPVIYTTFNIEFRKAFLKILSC

For `COc1ccccc1N1CCN(CCCCNC(=O)c2ccc3cc(OCCCN4CCCCC4)ccc3c2)CC1` [ST-2223, N-(4-(4-(2-methoxyphenyl)piperazin-1-yl)butyl)-6-(3-(piperidin-1-yl)propoxy)-2-naphthamide], the Ki (hH3R) was 4.6 nM, the “ratio of hD2Rs/hD3Rs” value (hD3R) was 10 and the “inhibition of acetylcholine esterase enzyme (eeAChE), in words” value (EeAChE) was “neglectful inhibition”. The Histamine level ([1]; Cerebellum) was “↑ ^b”, the Histamine level ([1]; Hippocampus) was “↔” and the Histamine level ([1]; Prefrontal cortex) was “↔”. The “levels of histamine in brain regions” value ([1]; 5 mg/kg) was “significantly increased the levels of histamine in cerebellum and striatum; also recorded: without significant enhancement of brain histamine in hippocampal tissues”, the Histamine level ([1]; Striatum) was “↑ ^b” and the Dopamine level ([2]; Cerebellum) was “↓ ^b”. For the same compound, the Dopamine level ([2]; Hippocampus) was “↔”, the Dopamine level ([2]; Prefrontal cortex) was “↑ ^b” and the Dopamine level ([2]; Striatum) was “↑ ^b”. The “dopamine levels” value ([2]; prefrontal cortex and striatum, ST-2223 5 mg/kg chronic, p < 0.05) was “significantly increased the dopamine levels in both regions” and the “behavioral alterations in B6 control mice” value (B6 control mice) was “no behavioral alterations”.
